Assay results from ChEMBL document CHEMBL4507265 (2021).

Experiments:
[1] = biological target: ALK tyrosine kinase receptor (Homo sapiens) (UniProt Q9UM73); conditions: Compound concentration 1000.0 nM
[2] = biological target: Aurora kinase B (Homo sapiens) (UniProt Q96GD4); conditions: Compound concentration 1000.0 nM
[3] = biological target: Tyrosine-protein kinase Blk (Homo sapiens) (UniProt P51451); conditions: Compound concentration 1000.0 nM
[4] = biological target: Bone morphogenetic protein receptor type-1B (Homo sapiens) (UniProt O00238); conditions: Compound concentration 1000.0 nM
[5] = biological target: Calcium/calmodulin-dependent protein kinase kinase 2 (Homo sapiens) (UniProt Q96RR4); conditions: Compound concentration 1000.0 nM
[6] = biological target: Cyclin-dependent kinase-like 1 (Homo sapiens) (UniProt Q00532); conditions: Compound concentration 1000.0 nM
[7] = biological target: Discoidin domain-containing receptor 2 (Homo sapiens) (UniProt Q16832); conditions: Compound concentration 1000.0 nM
[8] = system: Epidermal growth factor receptor (Homo sapiens), P00533 [UNDEFINED MUTATION]; conditions: Compound concentration 1000.0 nM
[9] = biological target: Mitogen-activated protein kinase 4 (Homo sapiens) (UniProt P31152); conditions: Compound concentration 1000.0 nM
[10] = biological target: Mitogen-activated protein kinase 7 (Homo sapiens) (UniProt Q13164); conditions: Compound concentration 1000.0 nM
[11] = biological target: Rhodopsin kinase GRK7 (Homo sapiens) (UniProt Q8WTQ7); conditions: Compound concentration 1000.0 nM
[12] = biological target: Glycogen synthase kinase-3 alpha (Homo sapiens) (UniProt P49840); conditions: Compound concentration 1000.0 nM
[13] = biological target: Homeodomain-interacting protein kinase 1 (Homo sapiens) (UniProt Q86Z02); conditions: Compound concentration 1000.0 nM
[14] = system: Mast/stem cell growth factor receptor Kit (Homo sapiens), P10721 [D816H]; conditions: Compound concentration 1000.0 nM
[15] = biological target: Serine/threonine-protein kinase LATS2 (Homo sapiens) (UniProt Q9NRM7); conditions: Compound concentration 1000.0 nM
[16] = biological target: Tyrosine-protein kinase Lck (Homo sapiens) (UniProt P06239); conditions: Compound concentration 1000.0 nM
[17] = biological target: Serine/threonine-protein kinase STK11 (Homo sapiens) (UniProt Q15831); conditions: Compound concentration 1000.0 nM
[18] = biological target: Tyrosine-protein kinase Lyn (Homo sapiens) (UniProt P07948); conditions: Compound concentration 1000.0 nM
[19] = biological target: Mitogen-activated protein kinase kinase kinase 4 (Homo sapiens) (UniProt Q9Y6R4); conditions: Compound concentration 1000.0 nM
[20] = biological target: Mitogen-activated protein kinase kinase kinase kinase 5 (Homo sapiens) (UniProt Q9Y4K4); conditions: Compound concentration 1000.0 nM
[21] = biological target: Serine/threonine-protein kinase MARK2 (Homo sapiens) (UniProt Q7KZI7); conditions: Compound concentration 1000.0 nM
[22] = biological target: Myosin-IIIb (Homo sapiens) (UniProt Q8WXR4); conditions: Compound concentration 1000.0 nM
[23] = biological target: Serine/threonine-protein kinase PAK 3 (Homo sapiens) (UniProt O75914); conditions: Compound concentration 1000.0 nM
[24] = biological target: Phosphorylase b kinase regulatory subunit alpha, liver isoform (Homo sapiens) (UniProt P46019); conditions: Compound concentration 1000.0 nM
[25] = biological target: Phosphatidylinositol 4-phosphate 3-kinase C2 domain-containing subunit beta (Homo sapiens) (UniProt O00750); conditions: Compound concentration 1000.0 nM
[26] = system: Phosphatidylinositol 4,5-bisphosphate 3-kinase catalytic subunit alpha isoform (Homo sapiens), P42336 [I800L]; conditions: Compound concentration 1000.0 nM
[27] = biological target: Phosphatidylinositol 4-phosphate 5-kinase type-1 alpha (Homo sapiens) (UniProt Q99755); conditions: Compound concentration 1000.0 nM
[28] = biological target: Serine/threonine-protein kinase D1 (Homo sapiens) (UniProt Q15139); conditions: Compound concentration 1000.0 nM
[29] = biological target: Serine/threonine-protein kinase D2 (Homo sapiens) (UniProt Q9BZL6); conditions: Compound concentration 1000.0 nM
[30] = biological target: Ribosomal protein S6 kinase alpha-6 (Homo sapiens) (UniProt Q9UK32); conditions: Compound concentration 1000.0 nM
[31] = biological target: Uncharacterized serine/threonine-protein kinase SBK3 (Homo sapiens) (UniProt P0C264); conditions: Compound concentration 1000.0 nM
[32] = biological target: TRAF2 and NCK-interacting protein kinase (Homo sapiens) (UniProt Q9UKE5); conditions: Compound concentration 1000.0 nM
[33] = biological target: Non-receptor tyrosine-protein kinase TNK1 (Homo sapiens) (UniProt Q13470); conditions: Compound concentration 1000.0 nM
[34] = biological target: Transient receptor potential cation channel subfamily M member 6 (Homo sapiens) (UniProt Q9BX84); conditions: Compound concentration 1000.0 nM
[35] = biological target: Serine/threonine-protein kinase ULK1 (Homo sapiens) (UniProt O75385); conditions: Compound concentration 1000.0 nM
[36] = biological target: Serine/threonine-protein kinase 32C (Homo sapiens) (UniProt Q86UX6); conditions: Compound concentration 1000.0 nM
[37] = biological target: Mu-type opioid receptor (Homo sapiens) (UniProt P35372); conditions: Compound concentration 10.0 uM
[38] = biological target: T1, Alpha-1A adrenergic receptor (Homo sapiens) (UniProt P35348); conditions: Compound concentration 10.0 uM
T1 sequence (whole entry): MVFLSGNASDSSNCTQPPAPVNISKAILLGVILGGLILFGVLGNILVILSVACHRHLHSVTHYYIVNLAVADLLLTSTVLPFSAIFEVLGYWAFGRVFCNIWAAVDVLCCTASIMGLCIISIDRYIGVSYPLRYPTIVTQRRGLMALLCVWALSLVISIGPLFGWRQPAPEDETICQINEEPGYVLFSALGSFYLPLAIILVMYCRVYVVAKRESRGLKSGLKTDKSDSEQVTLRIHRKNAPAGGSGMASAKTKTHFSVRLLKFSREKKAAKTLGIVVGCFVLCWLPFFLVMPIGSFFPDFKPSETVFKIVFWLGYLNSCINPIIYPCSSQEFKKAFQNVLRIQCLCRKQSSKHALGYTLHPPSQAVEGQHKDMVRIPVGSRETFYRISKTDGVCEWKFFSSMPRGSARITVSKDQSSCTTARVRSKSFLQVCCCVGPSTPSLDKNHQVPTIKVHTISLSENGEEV

Chain of Serine/threonine-protein kinase D1 (Homo sapiens) (Q15139 whole entry): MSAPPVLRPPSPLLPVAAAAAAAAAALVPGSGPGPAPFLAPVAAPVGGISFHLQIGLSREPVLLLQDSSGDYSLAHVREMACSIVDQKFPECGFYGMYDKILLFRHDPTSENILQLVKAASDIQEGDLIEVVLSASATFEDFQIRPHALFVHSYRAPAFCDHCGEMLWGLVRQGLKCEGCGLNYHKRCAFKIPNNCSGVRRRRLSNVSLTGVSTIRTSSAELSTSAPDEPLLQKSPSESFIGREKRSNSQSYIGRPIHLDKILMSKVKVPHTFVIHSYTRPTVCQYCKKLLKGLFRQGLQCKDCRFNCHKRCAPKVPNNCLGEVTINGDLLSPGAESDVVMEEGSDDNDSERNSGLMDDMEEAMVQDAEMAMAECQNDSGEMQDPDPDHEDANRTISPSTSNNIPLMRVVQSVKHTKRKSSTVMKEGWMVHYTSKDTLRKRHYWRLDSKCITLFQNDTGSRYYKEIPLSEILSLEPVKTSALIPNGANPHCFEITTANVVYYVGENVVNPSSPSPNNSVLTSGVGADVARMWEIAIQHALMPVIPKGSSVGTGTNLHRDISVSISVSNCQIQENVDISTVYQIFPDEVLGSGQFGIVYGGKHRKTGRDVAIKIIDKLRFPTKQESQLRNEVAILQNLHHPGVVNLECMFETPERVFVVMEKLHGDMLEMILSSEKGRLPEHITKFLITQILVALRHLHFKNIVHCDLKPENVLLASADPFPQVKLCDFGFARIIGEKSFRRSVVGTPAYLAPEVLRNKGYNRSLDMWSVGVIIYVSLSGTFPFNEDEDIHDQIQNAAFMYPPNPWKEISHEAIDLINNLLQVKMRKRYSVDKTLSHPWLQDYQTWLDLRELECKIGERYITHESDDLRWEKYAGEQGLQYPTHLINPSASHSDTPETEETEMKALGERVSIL
Chain of Serine/threonine-protein kinase D2 (Homo sapiens) (Q9BZL6 whole entry): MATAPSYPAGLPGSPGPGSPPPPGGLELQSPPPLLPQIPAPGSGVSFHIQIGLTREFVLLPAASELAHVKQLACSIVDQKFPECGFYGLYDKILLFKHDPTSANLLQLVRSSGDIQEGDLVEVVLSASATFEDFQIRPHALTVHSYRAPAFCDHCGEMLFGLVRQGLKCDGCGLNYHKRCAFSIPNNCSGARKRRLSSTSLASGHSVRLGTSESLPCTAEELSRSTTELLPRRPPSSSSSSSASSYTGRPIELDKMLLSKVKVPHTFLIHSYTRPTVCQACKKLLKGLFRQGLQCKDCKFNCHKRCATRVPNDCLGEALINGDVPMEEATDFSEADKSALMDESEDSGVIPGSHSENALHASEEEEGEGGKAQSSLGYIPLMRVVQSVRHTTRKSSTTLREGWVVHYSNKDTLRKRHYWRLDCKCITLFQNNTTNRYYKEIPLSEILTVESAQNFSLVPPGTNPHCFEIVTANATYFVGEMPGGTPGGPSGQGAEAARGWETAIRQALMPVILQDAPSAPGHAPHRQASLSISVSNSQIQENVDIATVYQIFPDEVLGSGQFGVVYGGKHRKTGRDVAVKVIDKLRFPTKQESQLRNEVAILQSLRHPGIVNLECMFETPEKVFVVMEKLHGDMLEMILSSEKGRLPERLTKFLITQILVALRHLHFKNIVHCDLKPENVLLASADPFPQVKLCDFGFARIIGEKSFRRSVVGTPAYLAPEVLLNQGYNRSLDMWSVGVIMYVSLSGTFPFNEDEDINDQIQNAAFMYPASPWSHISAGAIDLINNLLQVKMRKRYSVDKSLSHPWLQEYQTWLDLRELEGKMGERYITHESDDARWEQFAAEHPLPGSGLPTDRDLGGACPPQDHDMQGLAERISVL
Chain of Phosphatidylinositol 4-phosphate 5-kinase type-1 alpha (Homo sapiens) (Q99755 whole entry): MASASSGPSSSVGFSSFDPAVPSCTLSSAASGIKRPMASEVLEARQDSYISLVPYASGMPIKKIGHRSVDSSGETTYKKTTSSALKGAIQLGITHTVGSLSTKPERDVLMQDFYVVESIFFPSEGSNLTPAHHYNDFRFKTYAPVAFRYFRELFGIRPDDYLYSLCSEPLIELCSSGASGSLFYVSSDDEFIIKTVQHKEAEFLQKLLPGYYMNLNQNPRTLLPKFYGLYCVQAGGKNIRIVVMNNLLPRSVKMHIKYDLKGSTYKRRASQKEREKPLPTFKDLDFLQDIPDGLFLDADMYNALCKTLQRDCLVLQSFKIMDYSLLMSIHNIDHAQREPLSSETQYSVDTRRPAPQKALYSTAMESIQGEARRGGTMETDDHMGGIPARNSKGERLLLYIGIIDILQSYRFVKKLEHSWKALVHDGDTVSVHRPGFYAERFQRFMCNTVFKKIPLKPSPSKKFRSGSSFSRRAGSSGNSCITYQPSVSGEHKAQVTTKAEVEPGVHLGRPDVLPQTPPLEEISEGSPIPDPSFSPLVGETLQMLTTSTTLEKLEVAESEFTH
Chain of Serine/threonine-protein kinase MARK2 (Homo sapiens) (Q7KZI7 whole entry): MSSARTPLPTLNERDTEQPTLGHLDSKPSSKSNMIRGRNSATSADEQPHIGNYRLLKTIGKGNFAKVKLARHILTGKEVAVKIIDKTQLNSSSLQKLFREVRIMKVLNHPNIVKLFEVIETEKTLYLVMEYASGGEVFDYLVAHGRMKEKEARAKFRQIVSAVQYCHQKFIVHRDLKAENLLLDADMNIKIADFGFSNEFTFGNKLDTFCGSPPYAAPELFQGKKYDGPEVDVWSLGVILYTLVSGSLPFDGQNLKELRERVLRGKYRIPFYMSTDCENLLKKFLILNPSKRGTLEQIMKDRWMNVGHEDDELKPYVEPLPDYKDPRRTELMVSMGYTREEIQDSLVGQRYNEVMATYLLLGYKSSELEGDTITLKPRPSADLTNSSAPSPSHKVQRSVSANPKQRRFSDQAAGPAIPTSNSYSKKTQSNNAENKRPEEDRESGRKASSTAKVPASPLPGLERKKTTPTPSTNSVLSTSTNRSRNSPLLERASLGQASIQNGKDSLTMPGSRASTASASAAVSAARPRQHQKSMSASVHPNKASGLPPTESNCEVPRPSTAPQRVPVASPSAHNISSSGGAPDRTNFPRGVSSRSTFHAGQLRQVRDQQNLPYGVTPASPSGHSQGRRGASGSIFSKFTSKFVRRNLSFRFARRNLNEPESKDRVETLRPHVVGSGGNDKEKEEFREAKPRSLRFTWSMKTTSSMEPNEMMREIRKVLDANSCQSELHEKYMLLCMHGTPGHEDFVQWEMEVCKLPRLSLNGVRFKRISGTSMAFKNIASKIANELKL
Chain of Tyrosine-protein kinase Blk (Homo sapiens) (P51451 2-505 limits assumed): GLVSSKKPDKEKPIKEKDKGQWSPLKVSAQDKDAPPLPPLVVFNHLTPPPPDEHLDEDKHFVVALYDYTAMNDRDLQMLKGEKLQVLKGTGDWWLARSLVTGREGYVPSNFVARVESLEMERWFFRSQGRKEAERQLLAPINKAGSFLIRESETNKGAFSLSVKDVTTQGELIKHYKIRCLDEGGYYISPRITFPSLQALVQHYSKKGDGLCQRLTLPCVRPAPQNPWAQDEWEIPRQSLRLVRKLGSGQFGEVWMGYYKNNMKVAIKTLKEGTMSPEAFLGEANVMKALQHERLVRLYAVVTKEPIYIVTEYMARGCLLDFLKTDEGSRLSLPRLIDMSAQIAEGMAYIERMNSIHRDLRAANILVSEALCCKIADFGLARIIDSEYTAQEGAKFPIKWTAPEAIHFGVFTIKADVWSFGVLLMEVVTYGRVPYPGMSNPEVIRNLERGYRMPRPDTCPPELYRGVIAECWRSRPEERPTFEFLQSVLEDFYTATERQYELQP
Chain of Phosphorylase b kinase regulatory subunit alpha, liver isoform (Homo sapiens) (P46019 whole entry, the tested form may be a part, canonical isoform): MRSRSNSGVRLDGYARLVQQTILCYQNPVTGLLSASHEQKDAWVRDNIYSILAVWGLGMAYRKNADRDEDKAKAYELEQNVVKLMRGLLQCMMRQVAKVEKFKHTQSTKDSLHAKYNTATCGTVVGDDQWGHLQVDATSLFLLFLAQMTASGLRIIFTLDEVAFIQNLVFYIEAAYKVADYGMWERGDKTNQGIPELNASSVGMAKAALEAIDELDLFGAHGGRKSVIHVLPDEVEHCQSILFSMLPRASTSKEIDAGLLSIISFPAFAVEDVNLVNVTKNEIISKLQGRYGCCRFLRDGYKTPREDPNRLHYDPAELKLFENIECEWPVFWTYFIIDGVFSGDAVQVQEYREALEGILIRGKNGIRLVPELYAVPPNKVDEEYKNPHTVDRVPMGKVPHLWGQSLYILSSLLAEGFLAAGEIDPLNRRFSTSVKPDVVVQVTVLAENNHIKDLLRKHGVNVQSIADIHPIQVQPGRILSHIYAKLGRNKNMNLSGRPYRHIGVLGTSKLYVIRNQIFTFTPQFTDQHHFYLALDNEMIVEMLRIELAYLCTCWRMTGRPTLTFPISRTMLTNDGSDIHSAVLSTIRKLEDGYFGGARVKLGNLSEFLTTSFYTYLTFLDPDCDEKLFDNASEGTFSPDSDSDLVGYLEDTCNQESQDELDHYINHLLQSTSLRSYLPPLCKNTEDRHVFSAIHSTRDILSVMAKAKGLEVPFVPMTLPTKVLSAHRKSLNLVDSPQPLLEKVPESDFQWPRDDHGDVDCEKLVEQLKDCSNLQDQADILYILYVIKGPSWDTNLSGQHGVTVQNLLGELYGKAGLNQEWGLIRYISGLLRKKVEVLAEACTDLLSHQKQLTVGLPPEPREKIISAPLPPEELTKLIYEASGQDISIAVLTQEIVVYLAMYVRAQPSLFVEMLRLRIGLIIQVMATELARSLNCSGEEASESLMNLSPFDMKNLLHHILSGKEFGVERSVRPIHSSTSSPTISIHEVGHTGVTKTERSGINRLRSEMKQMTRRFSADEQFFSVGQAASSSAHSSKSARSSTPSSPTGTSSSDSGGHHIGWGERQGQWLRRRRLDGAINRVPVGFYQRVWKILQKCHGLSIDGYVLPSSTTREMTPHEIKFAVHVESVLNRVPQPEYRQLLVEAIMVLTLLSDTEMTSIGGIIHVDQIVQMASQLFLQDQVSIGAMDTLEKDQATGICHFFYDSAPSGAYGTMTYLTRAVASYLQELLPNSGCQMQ

SMILES	residual activity [1]	residual activity [2]	residual activity [3]	residual activity [4]	residual activity [5]	residual activity [6]	residual activity [7]	residual activity [8]	residual activity [9]	residual activity [10]	residual activity [11]	residual activity [12]	residual activity [13]	residual activity [14]	residual activity [15]	residual activity [16]	residual activity [17]	residual activity [18]	residual activity [19]	residual activity [20]	further results
NS(=O)(=O)c1cc(NC(=O)C2(c3ccccc3Cl)CC2)ccc1Oc1cccc(Cl)c1 [BAY-207]	85%	84%	100%	81%	89%	99%	96%	46%	87%	92%	100%	90%	91%	86%	68%	80%	100%	83%	94%	100%	residual activity [21]: 100%; residual activity [22]: 29%; residual activity [23]: 64%; residual activity [24]: 100%; residual activity [25]: 100%; residual activity [26]: 100%; residual activity [27]: 100%; residual activity [28]: 65%; residual activity [29]: 87%; residual activity [30]: 96%; residual activity [31]: 74%; residual activity [32]: 100%; residual activity [33]: 100%; residual activity [34]: 95%; residual activity [35]: 89%; residual activity [36]: 100%; inhibition [37]: 40.2%; inhibition [38]: 15.1%
NS(=O)(=O)c1cc(NC(=O)Cc2ccccc2)ccc1Oc1cccc(Cl)c1 [BAY-1797]	100%	58%	68%	94%	91%	98%	87%	58%	91%	83%	77%	93%	80%	76%	94%	70%	51%	99%	100%	72%	residual activity [21]: 59%; residual activity [22]: 100%; residual activity [23]: 85%; residual activity [24]: 100%; residual activity [25]: 91%; residual activity [26]: 82%; residual activity [27]: 100%; residual activity [28]: 96%; residual activity [29]: 85%; residual activity [30]: 59%; residual activity [31]: 100%; residual activity [32]: 93%; residual activity [33]: 74%; residual activity [34]: 84%; residual activity [35]: 88%; residual activity [36]: 100%; inhibition [37]: 19.3%; inhibition [38]: 5.04%
